# Experimental data as given in ChEMBL document CHEMBL5230154, “Chemical probe of AHL modulators on quorum sensing in Gram-Negative Bacteria and as antiproliferative agents: A review” (Eur J Med Chem, 2021).
# How the values were obtained:
# [1] = Agonist activity against RhlR in Escherichia coli expressing JLD271/pJN105R2/pSC11-rhlI using CPRG as substrate by spectrophotometric assay
# [2] = molecular target: T1, HTH-type quorum-sensing regulator RhlR (Pseudomonas aeruginosa (strain ATCC 15692 / PAO1 / 1C / PRS 101 / LMG12228), UniProt P54292); test: Agonist activity against RhlR in Pseudomonas aeruginosa PAO-JP2 expressing prhlI-LVAgfp using CPRG as substrate by spectrophotometric assay
# T1 sequence (P54292 whole entry): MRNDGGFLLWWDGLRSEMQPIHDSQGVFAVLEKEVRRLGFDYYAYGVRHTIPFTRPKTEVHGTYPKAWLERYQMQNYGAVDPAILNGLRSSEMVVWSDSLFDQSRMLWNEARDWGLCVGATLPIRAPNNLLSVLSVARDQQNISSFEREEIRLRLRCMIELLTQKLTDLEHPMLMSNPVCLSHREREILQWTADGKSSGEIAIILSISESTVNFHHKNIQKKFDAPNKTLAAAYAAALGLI
# [3] = Inhibition of quorum sensing system in Pseudomonas aeruginosa PAO1 assessed as inhibition of pyocyanin production at 32 uM incubated for 17 hrs by spectrophotometric analysis
# [4] = Inhibition of quorum sensing system in Pseudomonas aeruginosa PAO1 assessed as inhibition of pyocyanin production at 250 uM incubated for 17 hrs by spectrophotometric analysis
# Pseudomonas aeruginosa [5] = test: Inhibition of quorum sensing system in Pseudomonas aeruginosa MH602 expressing PlasB::gfp assessed as inhibition of GFP fluorescence expression at 250 uM incubated for 15 hrs by fluorescence microplate reader analysis
# [6] = Cytotoxicity against human PBMC cells assessed as reduction in cell viability at 100 uM by MTT assay; assay type: toxicity, cell-based
# Pseudomonas aeruginosa [7] = test: Inhibition of Pseudomonas aeruginosa MH602 harboring PlasB::gfp(ASV) reporter assessed as decrease in GFP expression at 250 uM incubated for 22 hrs by fluorescence microplate reader analysis
# Pseudomonas aeruginosa [8] = test: Inhibition of Pseudomonas aeruginosa MH602 harboring PlasB::gfp(ASV) reporter assessed as decrease in GFP expression at 125 uM incubated for 22 hrs by fluorescence microplate reader analysis
# Escherichia coli [9] = test: Inhibition of Escherichia coli MT102 harbouring pJBA132 expressing Gfp assessed as inhibition of GFP fluorescence expression at 62.5 uM incubated for 15 hrs by fluorescence microplate reader analysis
# [10] = molecular target: T2, Transcriptional activator protein LuxR (Vibrio fischeri (strain ATCC 700601 / ES114), UniProt P35327); test: Antagonist activity against LuxR mediated quorum sensing system in Vibrio fischeri ES114 expressing luxI assessed as decrease in luminescence intensity incubated for 4 to 8 hrs by bioluminescence analysis; design: species or system Aliivibrio fischeri
# T2 sequence (P35327 whole entry): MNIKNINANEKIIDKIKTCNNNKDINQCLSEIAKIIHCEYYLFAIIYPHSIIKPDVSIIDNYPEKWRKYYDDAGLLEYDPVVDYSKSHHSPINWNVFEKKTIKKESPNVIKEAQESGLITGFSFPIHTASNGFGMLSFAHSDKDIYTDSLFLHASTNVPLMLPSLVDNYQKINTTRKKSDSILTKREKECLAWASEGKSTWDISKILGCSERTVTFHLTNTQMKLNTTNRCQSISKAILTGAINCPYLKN
# [11] = Inhibition of quorum sensing system in Pseudomonas aeruginosa MW1 assessed as inhibition of LasR expression incubated for 8 to 12 hrs in presence of 3-oxo-C12 HSL by fluorescence analysis
# [12] = Inhibition of quorum sensing system in Pseudomonas aeruginosa MW1 assessed as inhibition of LasR expression at 33 uM incubated for 8 to 12 hrs in presence of 3-oxo-C12 HSL by fluorescence analysis; conditions: time 8-12 hrs
# Escherichia coli [13] = test: Antagonist activity against quorum sensing system in Pseudomonas aeruginosa PAO1 assessed as inhibition of 3OC6HSL- induced GFP expression at 50 uM by fluorescence analysis; conditions: filed as antagonist
# Pseudomonas aeruginosa [14] = test: Antagonist activity against quorum sensing system in Pseudomonas aeruginosa PAO-JP2 (plasI-LVAgfp) assessed as inhibition of 3-oxo-C12 HSL induced GFP expression at 100 uM incubated for 6 hrs in presence of 1 uM of 3-oxo-C12 HSL by fluorescence analysis
# Pseudomonas aeruginosa [15] = test: Inhibition of biofilm formation in Pseudomonas aeruginosa PAO1 incubated for 12 hrs by crystal violet staining based analysis; assay type: functional
# [16] = Inhibition of quorum sensing system in Pseudomonas aeruginosa PAO1 assessed as decrease in rhlR expression at 15 uM incubated for 12 hrs by real-time fluorescent quantitative PCR analysis
# [17] = Inhibition of quorum sensing system in Pseudomonas aeruginosa PAO1 assessed as inhibition of elastase production at 15 uM incubated for 12 hrs by Congo red dye based spectrophotometric assay
# [18] = Inhibition of quorum sensing system in Pseudomonas aeruginosa PAO1 assessed as decrease in pqsR expression at 15 uM incubated for 12 hrs by real-time fluorescent quantitative PCR analysis
# [19] = Inhibition of quorum sensing system in Pseudomonas aeruginosa PAO1 assessed as decrease in lasA expression at 15 uM incubated for 12 hrs by real-time fluorescent quantitative PCR analysis
# [20] = Inhibition of quorum sensing system in Pseudomonas aeruginosa PAO1 assessed as inhibition of rhamnolipid production at 15 uM incubated for 12 hrs by spectrophotometric assay
# [21] = Inhibition of quorum sensing system in Pseudomonas aeruginosa PAO1 assessed as decrease in lasI expression at 15 uM incubated for 12 hrs by real-time fluorescent quantitative PCR analysis
# [22] = Inhibition of quorum sensing system in Pseudomonas aeruginosa PAO1 assessed as inhibition of pyocyanin production at 15 uM incubated for 12 hrs by spectrophotometric assay
# [23] = molecular target: T3, Transcriptional activator protein LasR (Pseudomonas aeruginosa (strain ATCC 15692 / PAO1 / 1C / PRS 101 / LMG12228)) (UniProt P25084); test: Antagonist activity against LasR-mediated quorum sensing system in Pseudomonas aeruginosa PAO1 assessed as inhibition of pyocyanin production at 200 uM incubated for 13 hrs by spectrophotometric assay; conditions: filed as antagonist
# T3 sequence (whole entry): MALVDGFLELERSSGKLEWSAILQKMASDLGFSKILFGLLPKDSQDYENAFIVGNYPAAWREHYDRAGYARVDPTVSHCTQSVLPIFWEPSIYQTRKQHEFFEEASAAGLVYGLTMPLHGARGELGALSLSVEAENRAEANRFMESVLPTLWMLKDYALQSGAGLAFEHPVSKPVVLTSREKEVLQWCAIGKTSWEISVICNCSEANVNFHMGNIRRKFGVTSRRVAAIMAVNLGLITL
# Escherichia coli [24] = test: Inhibition of Escherichia coli MT102 harbouring pJBA132 expressing Gfp assessed as inhibition of GFP fluorescence expression at 250 uM incubated for 15 hrs by fluorescence microplate reader analysis
# [25] = molecular target: T4, Transcriptional activator protein LasR (Pseudomonas aeruginosa (strain ATCC 15692 / PAO1 / 1C / PRS 101 / LMG12228), UniProt P25084); test: Antagonist activity against LasR-mediated quorum sensing system in Pseudomonas aeruginosa PAO1 by spectrophotometric assay
# T4 sequence (P25084 whole entry): T3 sequence (whole entry)
# Pseudomonas aeruginosa [26] = test: Inhibition of quorum sensing system in Pseudomonas aeruginosa MH602 PlasB-gfp(ASV) assessed as inhibition of green fluorescent protein production at 125 uM for 20 hrs by fluorescence assay
# Pseudomonas aeruginosa [27] = test: Inhibition of quorum sensing system in Pseudomonas aeruginosa MH602 PlasB-gfp(ASV) assessed as inhibition of green fluorescent protein production at 62.5 uM for 20 hrs by fluorescence assay
# Pseudomonas aeruginosa [28] = test: Inhibition of quorum sensing system in Pseudomonas aeruginosa MH602 PlasB-gfp(ASV) assessed as inhibition of green fluorescent protein production at 250 uM for 20 hrs by fluorescence assay
# [29] = Antagonist activity against quorum sensing system in Pseudomonas aeruginosa PAO1 transfected with lasB-lacZ reporter gene assessed as inhibition of beta-galactosidase activity incubated for 24 hrs by elastin-Congo red assay
# [30] = Inhibition of quorum sensing system in Pseudomonas aeruginosa PA14 assessed as inhibition of pyocyanin production incubated for 17 hrs by spectrophotometric assay
compound,measurement,setting,value
CC(C)CCCC(=O)N[C@H]1CCOC1=O,EC50,[1],1420 nM
same,EC50,[2],1020 nM
O=C1C(Cl)=C(Cl)CN1c1cccc(O)c1,inhibition,[3],80%
same,inhibition,[4],90%
same,inhibition,Pseudomonas aeruginosa [5],78%
O=C(CCCNc1ccc(F)cc1)NC1CCOC1=O (stereo not drawn),Activity,[6],49.2%
C#CNC(=O)C(=O)c1cc(C)ccc1NC(=O)CCl,inhibition,Pseudomonas aeruginosa [7],36.9%
same,inhibition,Pseudomonas aeruginosa [8],64.6%
C#CCNC(=O)C(=O)c1ccccc1NC(=O)CCl,inhibition,Escherichia coli [9],56.5%
O=C(Cc1ccccc1)N[C@H]1CCOC1=O,IC50,[10],600 nM
O=C(Cc1ccc(-c2ccccc2)cc1)N[C@H]1CCOC1=O,IC50,[10],600 nM
O=C1C(Br)=C(Br)CN1c1ccccc1,inhibition,[3],80%
same,inhibition,[4],90%
same,inhibition,Pseudomonas aeruginosa [5],80.7%
CCCCCCCCCCCCn1nnc(CC(=O)O)n1,IC50,[11],30000 nM
same,inhibition,[12],50%
CCOC(=O)/C=C1\CC(NCc2ccccc2)C(=O)N1Cc1ccccc1 (stereo not drawn),inhibition,Escherichia coli [13],57.9%
CCCCCCCCCCCC(=O)NC1CCC[C@@H]1O (stereo partly drawn),inhibition,Pseudomonas aeruginosa [14]; filed as antagonist,70%
O=C1C(=O)N(C(=O)CCl)c2ccccc21,inhibition,Pseudomonas aeruginosa [7],60.1%
same,inhibition,Pseudomonas aeruginosa [8],34.7%
Cc1cccc(NC(=O)NC(=O)CSC(=S)N[C@H]2CCOC2=O)c1,inhibition (INH),Pseudomonas aeruginosa [15],36.2%
same,inhibition,[16],48.4%
same,inhibition,[17],13.7%
same,inhibition,[18],72.5%
same,inhibition,[19],64.1%
same,inhibition,[20],28.1%
same,inhibition,[21],55.1%
same,inhibition,[22],34.5%
O=C(Cc1ccc(Cl)cc1)N[C@H]1CCOC1=O,IC50,[10],600 nM
CCOC(=O)/C=C1\CC(NCc2ccc(C)cc2)C(=O)N1Cc1ccc(C)cc1 (stereo not drawn),inhibition,Escherichia coli [13],47.9%
COc1ccccc1NC(=O)NC(=O)CSC(=S)N[C@H]1CCOC1=O,inhibition (INH),Pseudomonas aeruginosa [15],40.3%
same,inhibition,[17],18.4%
same,inhibition,[18],57.5%
same,inhibition,[20],16.7%
same,inhibition,[21],39.2%
same,inhibition,[22],30.3%
CCCCC(=O)N[C@H]1CCSC1=O,EC50,[1],4870 nM
same,EC50,[2],3820 nM
CCCCCCCCCCCC(=O)NC1CCCCC1=O (stereo not drawn),inhibition,Pseudomonas aeruginosa [14],30%
CCCCCCCCCC(=O)CC(=O)Nc1cccc(OC)c1,inhibition,[23],93%
O=C1Cn2nncc2CNC(=O)C(=O)c2ccccc2NC(=O)Cn2nncc2CNC(=O)C(=O)c2ccccc2N1,inhibition,Pseudomonas aeruginosa [7],74%
same,inhibition,Escherichia coli [24],18.7%
O=C(CCSc1ccc(Cl)cc1)N[C@H]1CCOC1=O,inhibition (INH),Pseudomonas aeruginosa [15],34.1%
same,inhibition,[18],53.5%
same,inhibition,[19],58.5%
same,inhibition,[20],17.6%
same,inhibition,[21],47.9%
same,inhibition,[22],27.5%
CCOC(=O)/C=C1\CC(NCc2ccco2)C(=O)N1Cc1ccco1 (stereo not drawn),inhibition,Escherichia coli [13],56.9%
O=C(CC1CCC1)N[C@H]1CCOC1=O,EC50,[1],1780 nM
same,EC50,[2],1410 nM
CCCCCCCCCC(=O)CC(=O)Nc1cccc(I)c1,inhibition,[23],67%
Nc1cccc(N2CC(Cl)=C(Cl)C2=O)c1,inhibition,[3],80%
same,inhibition,[4],90%
same,inhibition,Pseudomonas aeruginosa [5],80.4%
O=C(CCCNc1ccc(Cl)cc1)NC1CCOC1=O (stereo not drawn),Activity,[6],57.4%
O=C(Cc1ccc(I)cc1)N[C@H]1CCOC1=O,IC50,[10],600 nM
O=C1C(Cl)=C(Cl)CN1c1ccccc1,inhibition,[3],80%
same,inhibition,[4],90%
same,inhibition,Pseudomonas aeruginosa [5],81.7%
CC1=C(Br)/C(=C(\C)Br)OC1=O,inhibition (INH),Pseudomonas aeruginosa [15],28.6%
same,inhibition,[16],58.8%
same,inhibition,[17],16.5%
same,inhibition,[18],45%
same,IC50,[25],17400 nM
same,inhibition,[20],25.8%
same,inhibition,[21],26.9%
same,inhibition,[22],31.6%
CCCCCCCCCC(=O)CC(=O)Nc1ccc(OC)cc1,inhibition,[23],73%
CCc1cn(CC(=O)Nc2nc3ccccc3[nH]2)nn1,inhibition,Pseudomonas aeruginosa [26],34%
same,inhibition,Pseudomonas aeruginosa [27],25%
same,inhibition,Pseudomonas aeruginosa [28],42%
CCOC(=O)/C=C1\CC(NCc2cccs2)C(=O)N1Cc1cccs1 (stereo not drawn),inhibition,Escherichia coli [13],53.5%
CCCCCCCCCNC(=O)CC(=O)c1ccccc1,IC50,[11],10000 nM
same,inhibition,[12],75%
O=C(Cn1cc(-c2ccc(Cl)cc2)nn1)Nc1nc2ccccc2[nH]1,inhibition,Pseudomonas aeruginosa [26],60.5%
same,inhibition,Pseudomonas aeruginosa [27],52.9%
same,inhibition,Pseudomonas aeruginosa [28],65%
CCCCCCCC(=O)NC1CCCC1,IC50,[29],250000 nM
C#CNC(=O)C(=O)c1cc(Br)ccc1NC(=O)CCl,inhibition,Pseudomonas aeruginosa [7],31.8%
same,inhibition,Pseudomonas aeruginosa [8],65%
O=C(CCCOc1cccc(Br)c1)NC1CCSC1=O (stereo not drawn),IC50,[30],8000 nM
O=C(CCCOc1cccc(Cl)c1)NC1CCSC1=O (stereo not drawn),IC50,[30],9000 nM
